Assay results: patent publication EP0533724B1, “CALCIUM CITRATE MALATE COMPOSITION” (THE PROCTER & GAMBLE COMPANY, priority 1990, dated 1991)

Experiment: physchem
Conditions: water
Source text: The exact method for determining this is described hereinafter.

**Q.** For `O=C(O)CC(O)C(=O)O` (stereo not shown) [calcium malate], which solubility at 0.5 h is on record?
**A.** The solubility at 0.5 h was 660 mg/mL.
